Measured values published in patent publication US20110173718A1, “HERBICIDE TOLERANT PLANTS” (SYNGENTA CROP PROTECTION, INC., priority 2008, published 2011).
Several values for one entry are separate records, joined by “and”; a condition that tells them apart may be missing. Equal values may be shown once. Marks after values point to notes of the source that are not given here.

Assays:
[1] = biological target: T1, Arabidopsis HST (Arabidopsis thaliana, UniProt Q1ACB3); assay: HST total extraction (non TLC) assay, recombinant Arabidopsis HST from insect cells; format: biochemical; conditions: 3 point dose curves only conducted at 50 μM HPP
T1 construct: GST (factor Xa cleavage site) (N); made in house; host or cells: Sf9 insect cells (baculovirus, pAcG3X), membrane fraction
T1 sequence (Q1ACB3 70-386): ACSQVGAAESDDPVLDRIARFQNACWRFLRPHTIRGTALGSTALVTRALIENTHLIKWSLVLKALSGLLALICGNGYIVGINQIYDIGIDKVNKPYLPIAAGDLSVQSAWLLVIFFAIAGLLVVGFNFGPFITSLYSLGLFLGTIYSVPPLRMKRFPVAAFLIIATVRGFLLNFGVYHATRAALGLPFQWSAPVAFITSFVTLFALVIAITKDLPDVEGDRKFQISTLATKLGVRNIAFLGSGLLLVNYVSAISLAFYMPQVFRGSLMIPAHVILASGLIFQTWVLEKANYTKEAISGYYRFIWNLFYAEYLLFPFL

[2] = biological target: T2, Chlamydomonas HST (Chlamydomonas reinhardtii, UniProt A1JHN0); assay: HST assay (TLC, MFBQ formed), recombinant Chlamydomonas HST in E. coli membranes; format: biochemical; conditions: 25 ppm; TLC, estimated amount of MFBQ formed, relative to controls; read-out: Chlamydomonas. HST % I at 25 ppm
T2 construct: GST (N); made in house; host or cells: E. coli (BL21A1 / BL21DE3), membrane fraction
T2 sequence (A1JHN0 51-370): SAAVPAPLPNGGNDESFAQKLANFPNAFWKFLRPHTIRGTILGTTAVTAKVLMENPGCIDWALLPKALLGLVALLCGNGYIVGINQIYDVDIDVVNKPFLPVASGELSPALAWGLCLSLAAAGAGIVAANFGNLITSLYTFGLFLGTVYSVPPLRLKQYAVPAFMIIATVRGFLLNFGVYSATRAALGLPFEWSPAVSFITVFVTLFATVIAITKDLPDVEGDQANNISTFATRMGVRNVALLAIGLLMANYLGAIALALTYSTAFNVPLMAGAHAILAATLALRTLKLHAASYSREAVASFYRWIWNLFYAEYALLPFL
Outline: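 Recombinant GST-fused Chlamydomonas HST in E. coli membranes was incubated with 200 μM farnesyl diphosphate and 100 μM 14C-homogentisate in 50 mM Tricine-NaOH pH 8.5, 20 mM MgCl2 for ~20 min at 28 °C, with compounds in DMSO. Oxidised plus reduced MFBQ was quantified by TLC phosphorimaging. Results are percent inhibition versus no-inhibitor control across doses.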

[3] = system: HST in spinach chloroplast extract; assay: HST assay (TLC, MFBQ formed), spinach chloroplast extract; format: biochemical; conditions: 25 ppm; TLC, estimated amount of MFBQ formed, relative to controls
Description: HST enzyme preparations for assay are also prepared directly from fresh plant material. For example HST enzyme preparations are from spinach. In the first step intact spinach chloroplasts are prepared from two lots of 500 g of fresh baby spinach leaves (e.g from the salad section of the local supermarket). Prepacked spinach is usually already washed, but if buying loose leaves these must be rinsed in water before proceeding. Stalks, large leaves and mid-ribs are removed. Each 500 g lot of leaves is added to 1.5 l of ‘Grinding medium’ in a 2 L plastic beaker. Grinding medium is cold (4° C.) 50 mM Tricine/NaOH buffer at pH 7.1 containing 330 mM glucose, 2 mM sodium isoascorbate, 5 mM MgCl2 and 0.1% bovine serum albumen The beaker, kept at 4° C., is placed under a Polytron 6000 blender, fitted with a 1.5″cutting probe and the mixture blended in short bursts of 5-8 sec up to 8-10K rpm until all the leaves are macerated. The homogenate is filtered into a 5 L beaker (embedded in an ice bucket) through four layers of muslin, and two layers of 50μ mesh nylon cloth. The filtrate is transferred to 250 ml buckets of a Beckman GS-6 centrifuge and spun at […] (3020 rpm) for 2 min at 4° C. The supernatant is drained away and discarded to leave a sediment of chloroplasts. Chloroplasts are resuspended in a few ml of cold resuspension medium by gentle swirling and gentle use of a quill brush soaked in resuspension medium. Resuspension medium is 50 mM Hepes/KOH pH 7.8 containing 330 mM sorbitol, 2 mM EDTA, 5 mM KH2PO4, 2 mM MgCl2 and 0.1% bovine serum albumen at 4° C. The chloroplasts are resuspended in 5-10 ml of resuspension buffer, recentrifuged down and resuspended again in order to wash them. The chloroplasts are then once again centrifuged down and then broken by resuspension in about 5 ml of 50 mM Tricine-NaOH pH 7.8 to a protein concentration of about 40 mg/ml. The solution is stored frozen at −80° C. in aliquots. This resuspension is defrosted and used directly in HST activity assays. Alternatively, chloroplasts are prepared resuspended in 50 mM Tris/HCl buffer at pH 7.8 containing 330 mM sorbitol (alternative resuspension buffer) and layered on top of a percol gradient (comprising the same buffer containing 45% percol), spun down, the intact chloroplast fraction taken and washed 2 or 3 times in the alternative resuspension buffer and then spun down again, resuspended in breaking buffer (without sorbitol), flash frozen and stored in aliquots at −80° C.
Prenyltransferase (HST) activities are measured by determining the prenylation rates of [U—^14C]homogentisate using farnesyl diphosphate (FDP) as prenyl donor. ^14C homogentisate is prepared from ^14C tyrosine using L amino acid oxidase and HPPD. For inhibitor testing, compounds are dissolved in dimethylsulfoxide (DMSO). DMSO added at up to 2% v/v has no effect on assays. Control assays contain DMSO at the same concentration as in inhibitor containing assays.
Assays using spinach chloroplast extracts (100 μl final volume) contain up to 2 mg of chloroplast protein, 50 mM Tricine-NaOH pH 8.5, 50 mM MgCl2, 200 μM farnesyl diphosphate (FDP) and 26 μM ^14C-homogentisate (167 dpm/pmol). Assays are run for about an hour at 28° C. […] Lipophilic reactions products are extracted and analyzed essentially as described in the literature.
Using the above assays percentage inhibition of the amount of MFBQ formed at a range of doses of inhibitors relative to the control amount obtained with no inhibitor present is reported (Table 1). The better inhibitors give greater percentage inhibition at lower doses.

[4] = system: tobacco plants expressing Pseudomonas fluorescens HPPD; assay: Glasshouse spray test, Pseudomonas HPPD transgenic tobacco; format: in vivo; conditions: C2 line (Pseudomonas HPPD, T2), individual plants
From the text: Tobacco plants expressing the wild-type HPPD gene of Pseudomonas fluorescens strain 87-79 under operable control of the double enhanced 35S CMV promoter region, Nos3′ terminator and TMV translational enhancer were provided as detailed in Example 4 of WO0246387.
(§1) Seed of wild-type tobacco plants, C2 tobacco plants and of the T1 progeny of a further Arabidopsis-HST expressing tobacco line, D2 were planted out in 3 inch pots, grown on, sprayed with compounds 1.1, 2.30 and 3.6 at the rates shown in table 5. Percent damage scores were assessed at 7 DAT. Aside from the presumptive non-transgenic segregants the D2 line containing the Arabidopis HST expression construct offered the highest level of tolerance to the two HST herbicides with the Psuedomonas HPPD, C2 line, offering only marginal tolerance under the conditions of this test.
Transgenic lines of tobacco, soyabean and corn etc. can be engineered to express various heterologous HPPDs derived from, for example Avena (SEQ ID #26), Wheat (SEQ ID #27), Pseudomonas fluorescens (SEQ ID # 25) and Shewanella colwelliana (SEQ ID #28) as, for example, described in WO 02/46387.
(§2) Single copy events amongst the T1 plant lines are identified by their 3:1 segregation ratio (wrt kanamycin and or herbicide) and by quantitative RT-PCR. Seed from the thus selected T1 tobacco (var Samsun) lines are sown in 3 inch diameter pots containing 50% peat, 50% John Innes soil no 3. After growth to the 3 leaf stage, plants are sprayed, as described above, in order to test for herbicide tolerance relative to like-treated non-transgenic tobacco plants.
(§3) Control tobacco plants and transgenic T1 plants expressing either the Pseudomonas or the wheat HPPD gene are sprayed at 37, 111, 333 and 1000 g/ha rates of HST inhibitors and, for example, compound 2.3.
(§4) Plants are assessed and scored for % damage at 16 DAT.

[5] = system: Arabidopsis HST transgenic tobacco plants; assay: Glasshouse spray test, Arabidopsis HST transgenic tobacco; format: in vivo; conditions: D2 line (Arabidopsis HST, segregating T1), individual plants
[6] = system: wild-type (WT) Samsun tobacco; assay: Glasshouse spray test, wild-type tobacco; format: in vivo; conditions: for % damage at 7 DAT: WT Samsun, individual plants
Description: Rooted transgenic T0 plantlets are transferred from agar and potted into 50% peat, 50% John Innes soil no 3 or, for example, MetroMix® 380 soil (Sun Gro Horticulture, Bellevue, Wash.) with slow-release fertilizer in 3 inch round or 4 inch square pots and left regularly watered to establish for 8-12 d in the glass house. Glass house conditions are about 24-27° C. day; 18-21° C. night and approximately a 14 h (or longer in UK summer) photoperiod. Humidity is ˜65% and light levels up to 2000 μmol/m^2 at bench level. Once new tissue emerges and plants they have reached the 2-4 leaf stage some of the clones from each event are sprayed with test chemicals dissolved in water with 0.2-0.25% X-77 surfactant and sprayed from a boom on a suitable track sprayer moving at 2 mph in a DeVries spray chamber with the nozzle about 2 inches from the plant tops. Spray volume is suitably 25 gallons per acre or, for example, […].
Test chemicals are, for example, compound 2.3 at 500 g/ha. At the same time that transgenic plants are sprayed so too are w/t Samsun tobacco plants grown from seed as well as non-transgenic plants regenerated from tissue culture and non-transgenic tissue culture escapes. Damage is assessed versus unsprayed control plants of like size and development.
6 Seed from w/t Samsun tobacco and 8 T1 seed from events B8 and G9 are also planted out in 3 inch pots, grown on for 7 to 12 d and then, as described in the foregoing examples, the plantlets spray tested for resistance to various chemicals and assessed at 14 DAT. Chemicals are formulated in 0.2% X77 and sprayed at a spray volume of 200 l/ha.
as §1, §2, §3, §4

| Structure (SMILES) | Estimated IC50 (ppm) [1] | inhibition at 25 ppm [2] [%] | Spinach chloroplast extract % I at 25 ppm [3] [%] | % damage at 7 DAT ([4]; 150 gai/ha) [%] | % damage at 7 DAT ([4]; 300 gai/ha) | % damage at 7 DAT ([4]; 450 gai/ha) [%] | % damage at 7 DAT ([5]; 150 gai/ha) | % damage at 7 DAT ([5]; 300 gai/ha) | % damage at 7 DAT ([5]; 450 gai/ha) | % damage at 7 DAT ([6]; 150 gai/ha) [%] | percent damage at 6 DAT ([6]; 300 g/ha, WT, reps) [%] | % damage at 7 DAT ([6]; 300 gai/ha) | % damage at 7 DAT ([6]; 450 gai/ha) [%] |
| --- | --- | --- | --- | --- | --- | --- | --- | --- | --- | --- | --- | --- | --- |
| Cc1cc(C)c(-c2c(O)c3nccnc3n(CC(F)F)c2=O)c(C)c1 [Compound 2.11] | 31* ppm | 80 | 30 |  |  |  |  |  |  |  |  |  |  |
| CC(C)C(=O)OC1=C(c2cc(Cl)ccc2C(F)(F)F)S(=O)(=O)N(CC(F)F)c2nccnc21 [Compound 3.6] |  |  |  | 60 | 65% (3×) and 70% | 65 | 10% (2×) and 70% (2×) and 30% and 20% and 65% and 25% | 65% and 35% and 7% and 85% (2×) and 80% and 75% and 40% | 55% and 25% (2×) and 65% (2×) and 70% and 80% and 75% | 80 | 65 | 80% (2×) and 75% | 85 |
